Among the data in ChEMBL document CHEMBL3259697, “Identification of type II and III DDR2 inhibitors” (J Med Chem, 2014) are Kd, IC50 and Activity values, retold here.

Structures are written as SMILES. Activity calls are given as the source filed them. The calls are words filed in the database; no cut-off is given here.

The target of test [1] is T1, Discoidin domain-containing receptor 2 (Homo sapiens, UniProt Q16832).
T1 sequence (Q16832 whole entry): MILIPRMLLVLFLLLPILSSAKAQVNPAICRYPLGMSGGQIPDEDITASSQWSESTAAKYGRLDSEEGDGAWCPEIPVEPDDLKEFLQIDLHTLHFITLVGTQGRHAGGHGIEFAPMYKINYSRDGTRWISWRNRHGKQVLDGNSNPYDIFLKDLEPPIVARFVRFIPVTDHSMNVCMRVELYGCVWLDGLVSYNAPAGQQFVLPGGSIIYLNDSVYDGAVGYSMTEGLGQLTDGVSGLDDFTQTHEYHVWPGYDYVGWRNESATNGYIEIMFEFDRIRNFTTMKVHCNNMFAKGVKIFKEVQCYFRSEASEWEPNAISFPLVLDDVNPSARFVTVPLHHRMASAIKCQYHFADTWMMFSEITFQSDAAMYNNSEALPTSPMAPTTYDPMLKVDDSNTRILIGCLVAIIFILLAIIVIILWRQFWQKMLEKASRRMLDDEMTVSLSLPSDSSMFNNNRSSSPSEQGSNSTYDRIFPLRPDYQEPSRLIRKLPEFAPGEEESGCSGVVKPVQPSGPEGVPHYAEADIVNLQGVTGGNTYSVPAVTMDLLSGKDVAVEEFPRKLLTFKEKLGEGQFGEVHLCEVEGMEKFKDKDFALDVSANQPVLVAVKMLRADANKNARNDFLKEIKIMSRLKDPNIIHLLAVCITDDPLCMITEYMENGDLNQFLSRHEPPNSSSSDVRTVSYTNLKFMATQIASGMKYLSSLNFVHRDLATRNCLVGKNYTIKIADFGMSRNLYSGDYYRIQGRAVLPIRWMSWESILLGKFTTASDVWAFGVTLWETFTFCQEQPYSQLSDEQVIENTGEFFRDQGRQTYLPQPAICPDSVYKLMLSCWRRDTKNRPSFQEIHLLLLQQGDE
Description: Binding affinity to human acrylodan-labeled N-terminal His-tagged DDR2 (558 to 855 aa) by FLiK assay

Test [2] has as its target Discoidin domain-containing receptor 2 (Homo sapiens, UniProt Q16832, T654M). Put plainly: Inhibition of DDR2 T654M mutant (unknown origin) preincubated for 30 mins before substrate addition by FRET assay.
The target of test [3] is T1, Discoidin domain-containing receptor 2. The source holds these as a separate data set.
Description: Inhibition of wild type DDR2 (unknown origin) preincubated for 30 mins before substrate addition by FRET assay
For test [4] the target is unchanged. Put plainly: Binding affinity to human acrylodan-labeled N-terminal His-tagged DDR2 (558 to 855 aa) by fluorescence spectroscopy.
For test [5], the target named is T2, Discoidin domain-containing receptor 2 (Homo sapiens) (UniProt Q16832).
T2 sequence (whole entry): T1 sequence (Q16832 whole entry)
Put plainly: Reversible binding affinity to human acrylodan-labeled N-terminal His-tagged DDR2 (558 to 855 aa) at 100 nM by fluorescence spectroscopy.

Test [6] deals with T1, Discoidin domain-containing receptor 2. Put plainly: Binding affinity to human DDR2 by Ambit assay.
For test [7] the target is unchanged. Put plainly: Inhibition of DDR2 (unknown origin) after 120 mins by radiometric assay in presence of gamma-[33P]-ATP.
Test [8] concerns the target Epithelial discoidin domain-containing receptor 1 (Homo sapiens, UniProt Q08345). Put plainly: Inhibition of DDR1 (unknown origin) after 120 mins by radiometric assay in presence of gamma-[33P]-ATP.

Sequence of Discoidin domain-containing receptor 2 (Homo sapiens, UniProt Q16832, T654M) (Q16832 22-855 T654M limits assumed): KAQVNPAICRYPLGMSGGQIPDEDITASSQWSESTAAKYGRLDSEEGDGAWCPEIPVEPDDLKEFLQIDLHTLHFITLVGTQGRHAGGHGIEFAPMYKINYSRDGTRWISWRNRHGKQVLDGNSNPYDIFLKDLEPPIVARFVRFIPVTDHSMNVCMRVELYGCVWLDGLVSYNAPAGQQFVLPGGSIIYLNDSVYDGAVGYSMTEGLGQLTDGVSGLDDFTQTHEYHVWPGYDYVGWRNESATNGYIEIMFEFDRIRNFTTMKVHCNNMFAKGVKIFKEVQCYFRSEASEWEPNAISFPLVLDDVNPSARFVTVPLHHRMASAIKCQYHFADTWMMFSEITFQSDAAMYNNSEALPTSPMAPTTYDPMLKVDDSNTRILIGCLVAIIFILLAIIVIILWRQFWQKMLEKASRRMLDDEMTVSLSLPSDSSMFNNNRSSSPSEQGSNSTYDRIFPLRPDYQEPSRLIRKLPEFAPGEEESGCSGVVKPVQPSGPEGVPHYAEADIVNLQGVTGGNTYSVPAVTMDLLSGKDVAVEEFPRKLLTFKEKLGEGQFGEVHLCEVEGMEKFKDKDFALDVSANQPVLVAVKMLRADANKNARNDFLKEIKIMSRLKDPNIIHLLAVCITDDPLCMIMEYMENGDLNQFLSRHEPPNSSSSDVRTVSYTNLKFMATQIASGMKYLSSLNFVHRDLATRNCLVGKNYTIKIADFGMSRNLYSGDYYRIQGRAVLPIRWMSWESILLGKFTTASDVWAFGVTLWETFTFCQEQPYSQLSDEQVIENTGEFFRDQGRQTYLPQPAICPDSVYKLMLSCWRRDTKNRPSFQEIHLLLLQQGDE
Sequence of Epithelial discoidin domain-containing receptor 1 (Q08345 whole entry, the tested form may be a part): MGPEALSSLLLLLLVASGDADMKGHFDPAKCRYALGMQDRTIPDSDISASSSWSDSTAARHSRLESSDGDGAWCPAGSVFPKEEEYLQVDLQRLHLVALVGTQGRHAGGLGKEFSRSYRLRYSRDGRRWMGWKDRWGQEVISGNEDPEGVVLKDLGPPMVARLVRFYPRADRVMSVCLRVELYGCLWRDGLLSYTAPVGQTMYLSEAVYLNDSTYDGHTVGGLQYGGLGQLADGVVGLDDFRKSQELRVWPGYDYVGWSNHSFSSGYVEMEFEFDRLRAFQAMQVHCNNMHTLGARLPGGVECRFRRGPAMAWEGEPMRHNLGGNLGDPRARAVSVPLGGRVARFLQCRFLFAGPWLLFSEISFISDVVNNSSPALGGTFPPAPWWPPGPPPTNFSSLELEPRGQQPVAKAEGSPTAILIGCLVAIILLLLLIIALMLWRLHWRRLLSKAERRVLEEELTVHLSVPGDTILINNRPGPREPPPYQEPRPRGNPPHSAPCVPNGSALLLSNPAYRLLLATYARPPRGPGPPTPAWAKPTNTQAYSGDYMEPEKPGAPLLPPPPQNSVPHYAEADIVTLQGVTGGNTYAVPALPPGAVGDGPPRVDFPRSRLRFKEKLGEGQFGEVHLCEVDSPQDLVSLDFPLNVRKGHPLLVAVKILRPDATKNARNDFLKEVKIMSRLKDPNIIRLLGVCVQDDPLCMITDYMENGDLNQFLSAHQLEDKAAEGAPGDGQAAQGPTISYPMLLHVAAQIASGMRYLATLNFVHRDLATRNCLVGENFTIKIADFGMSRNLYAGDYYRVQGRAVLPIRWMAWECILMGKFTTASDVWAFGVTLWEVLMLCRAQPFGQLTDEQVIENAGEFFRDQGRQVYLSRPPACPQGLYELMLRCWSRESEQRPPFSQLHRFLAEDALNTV

Consider `CCC(=O)Nc1cccc(-n2nc(C(C)(C)C)cc2NC(=O)Nc2ccc(OCCN3CCOCC3)c3ccccc23)c1`, for which the dissociation constant (Kd) in test [1] is 30 nM. The half-inhibitory concentration (IC50) in test [2] worked out at 687 nM; in test [3], 29 nM.

As for `CC(C)(C)c1cc(NC(=O)Nc2ccc(Cl)cc2)n(-c2cccc(N)c2)n1`, the Kd is 3.8 nM in test [4], 15 nM in test [1] and 15 nM in test [6]. For the same molecule, the outcome in test [5] was Active. Besides, the results for the IC50 in test [2] and in test [3] were 717 nM and 558 nM, respectively.

Molecule `CC(C)(C)c1cc(NC(=O)Nc2ccc(Nc3ncnc4ccccc34)cc2)n(-c2cccc(N)c2)n1` returned an equilibrium dissociation constant (Kd) in test [1] of 93 nM. In addition, the half-inhibitory concentration (IC50) was determined as 1 nM in test [2], 18 nM in test [7] and 3 nM in test [3].

For `CCOCCNc1cccc(-n2nc(C(C)(C)C)cc2NC(=O)Nc2ccc(OCCN3CCOCC3)c3ccccc23)c1`, in test [1], the Kd was above 1000 nM. For the same molecule, in test [3], inhibition was half-maximal at 14400 nM (IC50).

The molecule `Cc1ccc(-n2nc(C(C)(C)C)cc2NC(=O)Nc2nccs2)cc1` displayed a Kd in test [1] of 702 nM. Besides, the concentration for half-maximal inhibition (IC50) in test [2] is 1150 nM; in test [3], 4700 nM.

The molecule `CC(C)(C)c1cc(NC(=O)Nc2ccc(Cl)cc2)n(-c2cccc([N+](=O)[O-])c2)n1` yielded a Kd in test [1] of 412 nM. The half-inhibitory concentration (IC50) worked out at 1230 nM in test [2] and 856 nM in test [3].

In test [1], `CC(C)(C)c1cc(NC(=O)Nc2cccc(Nc3ncnc4ccccc34)c2)n(-c2cccc(N)c2)n1` had a Kd above 1000 nM. The IC50 came out at 73 nM in test [2], 75 nM in test [7] and 2 nM in test [3].

For `Cc1ccc(-n2nc(C(C)(C)C)cc2NC(=O)Nc2cccc3ccccc23)cc1`, binding in test [1] was put at a Kd of 252 nM. Moreover, the IC50 in test [2] was at least 100000 nM; in test [3], 408 nM.

`O=C(Nc1ccc(OCCN2CCOCC2)c2ccccc12)c1cc(F)cc(N2CCOCC2)c1` returned a Kd in test [1] of 915 nM. In addition, the IC50 in test [3] came out at 10900 nM.

`CC(C)(C)c1cc(NC(=O)Nc2nccs2)n(-c2ccc(CC(=O)O)cc2)n1` registered a Kd in test [1] above 1000 nM. Further, the figures for the half-inhibitory concentration (IC50) in test [2] and in test [3] were 820 nM and 9170 nM, respectively.

Take `NC(=O)c1c(OCc2c(F)cc(Br)cc2F)nsc1NC(=O)NCCCCN1CCCC1` [OSI-632]: in test [1], binding was put at a Kd of 422 nM. Also, the 50% inhibitory concentration (IC50) in test [2] amounted to 450 nM; in test [3] it was 24 nM.

With `O=C(O)Cc1cccc(-n2nc(C3CCCC3)cc2NC(=O)Nc2nc(CCOCc3ccccc3)cs2)c1`, in test [1], the dissociation constant (Kd) was 385 nM. Besides, the values for the IC50 in test [2] and in test [3] were 380 nM and 1560 nM, respectively.

In test [1], `CC(C)(C)c1cc(NC(=O)Nc2nc(CCOCc3ccc(F)cc3)cs2)n(-c2ccc(CC(=O)O)cc2)n1` came in with a Kd of 424 nM. Moreover, the IC50 in test [2] was 76 nM; in test [3], 1230 nM.

Regarding `COc1ccccc1NC(=O)c1sc2nc(C)c(C(=O)Nc3ccc(C)cc3C)c(-c3ccc(NC(C)=O)cc3)c2c1N`, the Kd in test [1] was above 1000 nM.

As for `CC(C)(C)c1cc(NC(=O)Nc2nc(CCOCc3ccccc3)cs2)n(-c2ccc(CC(=O)O)cc2)n1`, binding in test [1] was put at a Kd of 382 nM. Besides, the figures for the 50% inhibitory concentration (IC50) in test [2] and in test [3] were 670 nM and 2230 nM, respectively.

In turn, `CC(C)(C)c1cc(NC(=O)Nc2ccc(OCCN3CCOCC3)c3ccccc23)n(-c2cccc(N)c2)n1` showed a Kd in test [1] of 20 nM. Moreover, the IC50 in test [2] is 72 nM; in test [3], 8 nM.

For `CSc1ccc(-c2nc3cnccn3c2NC2CCCCC2)cc1`, the Kd in test [1] is above 1000 nM.

For the molecule `CC(C)(C)c1cc(NC(=O)Nc2cccc3ccccc23)n(-c2cccc([N+](=O)[O-])c2)n1`, the Kd in test [1] is 428 nM. Moreover, the IC50 in test [2] was at least 100000 nM; in test [3] it was 332 nM.

In test [1], `Cc1cccc(-n2nc(C(C)(C)C)cc2NC(=O)Nc2ccc(Cl)cc2)c1` gave a dissociation constant Kd of 15 nM. Also, the figures for the half-maximal inhibitory concentration (IC50) in test [2] and in test [3] were 808 nM and 183 nM, respectively.

`O=C(O)Cc1ccc(-n2nc(C3CCCC3)cc2NC(=O)Nc2nc(CCOCc3ccccc3)cs2)cc1`: the dissociation constant (Kd) in test [1] is above 1000 nM. Further, the IC50 turned out to be 1840 nM in test [2] and 2170 nM in test [3].

In test [1], `Nc1c(-c2ccccc2)oc2ccccc2c1=O` yielded a dissociation constant (Kd) above 1000 nM. Also, the concentration for half-maximal inhibition (IC50) is at least 100000 nM in test [2] and 80800 nM in test [3].

In test [1], `CC(C)(C)c1cc(NC(=O)Nc2ccccc2)n(-c2cccc(N)c2)n1` yielded a Kd above 1000 nM. For the same molecule, the results for the 50% inhibitory concentration (IC50) in test [2] and in test [3] were 2500 nM and 9410 nM, respectively.

In test [1], `Cc1ccc(-n2nc(C(C)(C)C)cc2NC(=O)Nc2nc(CCOCc3ccc(F)cc3)cs2)cc1` had a Kd of 406 nM. Moreover, the IC50 in test [2] amounted to 230 nM; in test [3], 3040 nM.

For the molecule `Cc1ccc(-n2nc(C(C)(C)C)cc2NC(=O)Nc2nc(CCOCc3ccncc3)cs2)cc1`, binding in test [1] was characterised by a dissociation constant (Kd) of 63 nM. Also, the IC50 stood at 2 nM in test [2], 68 nM in test [8], 65 nM in test [7] and 19 nM in test [3].

The molecule `CC(C)(C)c1cc(NC(=O)Nc2nc(CCOCc3ccccc3)cs2)n(-c2cccc(CC(=O)O)c2)n1` showed a Kd in test [1] above 1000 nM. The concentration for half-maximal inhibition (IC50) in test [2] was 1670 nM; in test [3] it was 10700 nM.

As usually defined, the Kd is the free concentration of one partner at which half of the binding sites on the other are occupied at equilibrium, for simple one-to-one binding. Higher therefore signals weaker binding. What is called IC50 is the point on the concentration scale where inhibition reaches its midpoint.
